Assay results reported in patent publication US12624023B2, “Sulfonylurea derivatives and uses thereof” (NodThera Limited, priority 2019, dated 2026).

How the values were obtained:
[1] = system: IL-1β release upon NLRP3 activation in peripheral blood mononuclear cells (PBMC); assay: PBMC IC50 determination assay (IL-1β release, LPS priming + ATP stimulation, HTRF); type: cell-based; settings: PBMC from buffy coats; LPS 1 μg/ml 3 h, compound 30 min, ATP 5 mM 1 h; IL-1β by HTRF
Description: The compounds of the present disclosure were tested for their inhibitory activity against IL-1β release upon NLRP3 activation in peripheral blood mononuclear cells (PBMC).
PBMC were isolated from buffy coats by density gradient centrifugation on Histopaque-1077 (Sigma, cat no. 10771). Isolated cells were seeded into the wells (280,000 cells/well) of a 96-well plate and incubated for 3 h with lipopolysaccharide (LPS, 1 μg/ml diluted 1000× from a 1 mg/ml stock solution). The compounds of the present disclosure were added (a single compound per well) and the cells were incubated for 30 min. Next, the cells were stimulated with ATP (5 mM final concentration diluted 20× from a 100 mM stock solution) for 1 h and the cell culture media from the wells were collected for further analysis.
(§1) The release of IL-1β into the media was determined by quantitative detection of IL-1β in the media using HTRF®, CisBio cat. No. 62HIL1BPEH. Briefly, cell culture supernatant were dispensed directly into the assay plate containing antibodies labelled with the HTRF® donor and acceptor. A microplate spectrophotometer (BMG) was used to detect signals at 655 nm and 620 nm. The detection range of IL-1β HTRF® was 39-6500 μg/ml.

[2] = system: IL-1β release upon NLRP3 activation in human whole blood; assay: Whole blood (WB) assay (IL-1β release, LPS priming + ATP stimulation, HTRF); type: cell-based; settings: heparin, diluted 9:5 with media, LPS 1 μg/ml 3 h, compound 30 min, ATP 5 mM 1 h, IL-1β by HTRF
Description: The compounds of the present disclosure were tested for their inhibitory activity against IL-1β release upon NLRP3 activation in human whole blood.
Whole blood was drawn from single healthy donors and treated with sodium heparin anticoagulant. Blood was diluted with cell culture media at a 9:5 ratio, seeded in a 96-well plate and incubated for 3 h with lipopolysaccharide (LPS, 1 μg/ml final concentration diluted 1000× from a 1 mg/ml stock solution). The compounds of the present disclosure were added (a single compound concentration per well) and the blood was incubated for 30 min. Next, the blood was stimulated with ATP (5 mM final concentration diluted 20× from a 100 mM stock solution) for 1 h and the cell culture media from the wells were collected for further analysis.
as §1, with “were diluted as appropriate to bring IL-1β levels within the HTRF® detection range ([…]) and subsequently” for “were”, “dispensed” for “dispensed directly”, “nm.” for “nm. The detection range of IL-1β HTRF® was 39-6500 μg/ml.”

IC50 [2]	Structure (SMILES)	IC50 [1]
< 1 µM	Cc1sc2c(c1NC(=O)NS(=O)(=O)N(c1cnn(C)c1)C1CCCN(C)C1)CCC2 (centres unmarked) [Compound 32, 1-[(1-Methyl-1H-pyrazol-4-yl)(1-methylpiperidin-3-yl)sulfamoyl]-3-{2-methyl-4H,5H,6H-cyclopenta[b]thiophen-3-yl}urea]	0.1 to 0.5 µM
1 to 3 µM	Cc1sc(C(C)C)cc1NC(=O)NS(=O)(=O)N(c1cnn(C)c1)[C@@H]1CCCN(C)C1 [Compound 57, 1-[(1-Methyl-1H-pyrazol-4-yl)[(3R)-1-methylpiperidin-3-yl]sulfamoyl]-3-[2-methyl-5-(propan-2-yl)thiophen-3-yl]urea]	0.1 to 0.5 µM
< 1 µM	Cc1cc(NC(=O)NS(=O)(=O)N(c2cnn(C3CC3)c2)C2CCCN(C)C2)c(C(C)C)s1 (centres unmarked) [Compound 112, 1-[(1-Cyclopropyl-1H-pyrazol-4-yl)(1-methylpiperidin-3-yl)sulfamoyl]-3-[5-methyl-2-(propan-2-yl)thiophen-3-yl]urea]	< 0.1 µM
1 to 3 µM	Cc1cc(NC(=O)NS(=O)(=O)N(c2cnn(C)c2)[C@@H]2CCCN(C)C2)c(C2CC2)s1 [Compound 108, 3-(2-Cyclopropyl-5-methylthiophen-3-yl)-1-[(1-methyl-1H-pyrazol-4-yl)[(3R)-1-methylpiperidin-3-yl]sulfamoyl]urea]	< 0.1 µM
10 to 20 µM	Cc1cc(C)c(NC(=O)NS(=O)(=O)N(c2cnn(C)c2)C2CCCN(C)C2)s1 (centres unmarked) [Compound 10, 3-(3,5-Dimethylthiophen-2-yl)-1-[(1-methyl-1H-pyrazol-4-yl)(1-methyl-piperidin-3-yl)sulfamoyl]urea]	1 to 5 µM
1 to 3 µM	CC(C)c1cc(NC(=O)NS(=O)(=O)N(c2cnn(C)c2)C2CCCN(C)C2)c(Cl)s1 (centres unmarked) [Compound 50, 3-[2-Chloro-5-(propan-2-yl)thiophen-3-yl]-1-[(1-methyl-1H-pyrazol-4-yl)(1-methylpiperidin-3-yl)sulfamoyl]urea]	0.5 to 1 µM
1 to 3 µM	CCc1oc(C(C)C)cc1NC(=O)NS(=O)(=O)N(c1cnn(C)c1)C1CCCN(C)C1 (centres unmarked) [Compound 78, 3-[2-Ethyl-5-(propan-2-yl)furan-3-yl]-1-[(1-methyl-1H-pyrazol-4-yl)(1-methyl-piperidin-3-yl)sulfamoyl]urea]	0.5 to 1 µM
1 to 3 µM	CCc1cc(NC(=O)NS(=O)(=O)N(c2cnn(C(C)C)c2)[C@@H]2CCCN(C)C2)c(CC)o1 [Compound 71, 3-(2,5-Diethylfuran-3-yl)-1-{[(3R)-1-methylpiperidin-3-yl][1-(propan-2-yl)-1H-pyrazol-4-yl]sulfamoyl}urea]	0.1 to 0.5 µM
10 to 20 µM	CCc1csc(CC)c1NC(=O)NS(=O)(=O)N(c1cnn(C)c1)C1CCOCC1 [Compound 7, 3-(2,4-Diethylthiophen-3-yl)-1-[(1-methyl-1H-pyrazol-4-yl)(oxan-4-yl)sulfamoyl]urea]	1 to 5 µM
< 1 µM	CC(C)c1sc2c(c1NC(=O)NS(=O)(=O)N(c1cnn(C)c1)[C@@H]1CCCN(C)C1)CCC2 [Compound 70, 1-[(1-Methyl-1H-pyrazol-4-yl)[(3R)-1-methylpiperidin-3-yl]sulfamoyl]-3-[2-(propan-2-yl)-4H,5H,6H-cyclopenta[b]thiophen-3-yl]urea]	0.1 to 0.5 µM
< 1 µM	Cc1sc2c(c1NC(=O)NS(=O)(=O)N(c1cnn(C)c1)[C@H]1CCCN(C)C1)CCC2 [Compound 116, 1-[(1-Methyl-1H-pyrazol-4-yl)[(3S)-1-methylpiperidin-3-yl]sulfamoyl]-3-{2-methyl-4H,5H,6H-cyclopenta[b]thiophen-3-yl}urea]	< 0.1 µM
1 to 3 µM	CC(C)c1cc(NC(=O)NS(=O)(=O)N(c2cnn(C3CC3)c2)[C@@H]2CCCN(C)C2)c(C(C)C)s1 [Compound 59, 3-[2,5-Bis(propan-2-yl)thiophen-3-yl]-1-[(1-cyclopropyl-1H-pyrazol-4-yl)-[(3R)-1-methylpiperidin-3-yl]sulfamoyl]urea]	< 0.1 µM
< 1 µM	CC(C)c1cc(NC(=O)NS(=O)(=O)N(c2cnn(C3CC3)c2)[C@H]2CCCN(C)C2)c(C(C)C)s1 [Compound 91, 3-[2,5-Bis(propan-2-yl)thiophen-3-yl]-1-[(1-cyclopropyl-1H-pyrazol-4-yl)[(3S)-1-methylpiperidin-3-yl]sulfamoyl]urea]	< 0.1 µM
> 20 µM	Cn1cc(N(C2CCOCC2)S(=O)(=O)NC(=O)Nc2cc(Cl)sc2Cl)cn1 [Compound 5, 3-(2,5-Dichlorothiophen-3-yl)-1-[(1-methyl-1H-pyrazol-4-yl)(oxan-4-yl)sulfamoyl]urea]	5 to 10 µM
3 to 10 µM	CC(C)c1cc(NC(=O)NS(=O)(=O)N(c2cnn(C)c2)[C@@H]2C[C@H](F)CN(C)C2)c(C(C)C)s1 [Compound 76, 3-[2,5-Bis(propan-2-yl)thiophen-3-yl]-1-{[(3R,5S)-5-fluoro-1-methylpiperidin-3-yl](1-methyl-1H-pyrazol-4-yl)sulfamoyl}urea]	0.1 to 0.5 µM
3 to 10 µM	CC(C)c1cc(NC(=O)NS(=O)(=O)N(CCN(C)C)c2cnn(C)c2)c(C(C)C)o1 [Compound 75, 3-[2,5-Bis(propan-2-yl)furan-3-yl]-1-{[2-(dimethylamino)ethyl](1-methyl-1H-pyrazol-4-yl)sulfamoyl}urea]	0.1 to 0.5 µM
< 1 µM	CC(C)c1cc(NC(=O)NS(=O)(=O)N(c2cnn(C)c2)[C@@H]2CCCN(C)C2)c(C(C)C)s1 [Compound 54, 3-[2,5-Bis(propan-2-yl)thiophen-3-yl]-1-[(1-methyl-1H-pyrazol-4-yl)[(3R)-1-methylpiperidin-3-yl]sulfamoyl]urea]	< 0.1 µM
< 1 µM	CC(C)c1sc(Cl)cc1NC(=O)NS(=O)(=O)N(c1cnn(C)c1)[C@@H]1CCCN(C)C1 [Compound 60, 3-[5-Chloro-2-(propan-2-yl)thiophen-3-yl]-1-[(1-methyl-1H-pyrazol-4-yl)-[(3R)-1-methylpiperidin-3-yl]sulfamoyl]urea]	< 0.1 µM
1 to 3 µM	CC(C)c1cc(NC(=O)NS(=O)(=O)N(c2cnn(C)c2)[C@@H]2C[C@@H](F)CN(C)C2)c(C(C)C)s1 [Compound 82, 3-[2,5-Bis(propan-2-yl)thiophen-3-yl]-1-{[(3R,5R)-5-fluoro-1-methylpiperidin-3-yl](1-methyl-1H-pyrazol-4-yl)sulfamoyl}urea]	< 0.1 µM
1 to 3 µM	CN1CCCC(N(c2cnn(C)c2)S(=O)(=O)NC(=O)Nc2c(C(F)(F)F)sc3c2CCC3)C1 (centres unmarked) [Compound 98, 1-[(1-Methyl-1H-pyrazol-4-yl)(1-methylpiperidin-3-yl)sulfamoyl]-3-[2-(trifluoromethyl)-4H,5H,6H-cyclopenta[b]thiophen-3-yl]urea]	0.1 to 0.5 µM
< 1 µM	CC(C)c1cc(NC(=O)NS(=O)(=O)N(c2cnn(C)c2)C2CCN(C)CC2)c(C(C)C)s1 [Compound 43, 3-[2,5-Bis(propan-2-yl)thiophen-3-yl]-1-[(1-methyl-1H-pyrazol-4-yl)(1-methyl-piperidin-4-yl)sulfamoyl]urea]	< 0.1 µM
> 20 µM	Cc1sc(C)c(NC(=O)NS(=O)(=O)N(c2cnn(C)c2)C2CCCN(C)C2)c1C (centres unmarked) [Compound 15, 1-[(1-Methyl-1H-pyrazol-4-yl)(1-methylpiperidin-3-yl)sulfamoyl]-3-(2,4,5-trimethylthiophen-3-yl)urea]	0.5 to 1 µM
< 1 µM	Cc1cc(NC(=O)NS(=O)(=O)N(c2cnn(C)c2)[C@H]2CCN(C)C2)c(C(C)C)s1 [Compound 127, 1-[(1-Methyl-1H-pyrazol-4-yl)[(3S)-1-methylpyrrolidin-3-yl]sulfamoyl]-3-[5-methyl-2-(propan-2-yl)thiophen-3-yl]urea]	< 0.1 µM
1 to 3 µM	CC(C)c1sc(Cl)cc1NC(=O)NS(=O)(=O)N(c1cnn(C)c1)C1CCN(C)CC1 [Compound 123, 3-[5-Chloro-2-(propan-2-yl)thiophen-3-yl]-1-[(1-methyl-1H-pyrazol-4-yl)(1-methylpiperidin-4-yl)sulfamoyl]urea]	< 0.1 µM
1 to 3 µM	CCc1cc(NC(=O)NS(=O)(=O)N(c2cnn(C(C)C)c2)[C@H]2CCCN(C)C2)c(CC)o1 [Compound 87, 3-(2,5-Diethylfuran-3-yl)-1-{[(3S)-1-methylpiperidin-3-yl][1-(propan-2-yl)-1H-pyrazol-4-yl]sulfamoyl}urea]	0.1 to 0.5 µM
